Source: paper PMC10687071 (The Journal of Biological Chemistry, 2023)
Numbering of substitutions follows the chain as printed.

Legend:
[1] = target: T1, D39G mutant EAG1 channels (Mus musculus, UniProt Q60603, D39G); test: TEVC recording, imipramine inhibition, D39G mutant; format: cell-based; conditions: D39G mutant EAG1 channel, +50 mV
T1 construct: expressed in transfected cells; host or cells: Xenopus laevis oocytes injected with cRNA
T1 sequence (Q60603 1-989 D39G): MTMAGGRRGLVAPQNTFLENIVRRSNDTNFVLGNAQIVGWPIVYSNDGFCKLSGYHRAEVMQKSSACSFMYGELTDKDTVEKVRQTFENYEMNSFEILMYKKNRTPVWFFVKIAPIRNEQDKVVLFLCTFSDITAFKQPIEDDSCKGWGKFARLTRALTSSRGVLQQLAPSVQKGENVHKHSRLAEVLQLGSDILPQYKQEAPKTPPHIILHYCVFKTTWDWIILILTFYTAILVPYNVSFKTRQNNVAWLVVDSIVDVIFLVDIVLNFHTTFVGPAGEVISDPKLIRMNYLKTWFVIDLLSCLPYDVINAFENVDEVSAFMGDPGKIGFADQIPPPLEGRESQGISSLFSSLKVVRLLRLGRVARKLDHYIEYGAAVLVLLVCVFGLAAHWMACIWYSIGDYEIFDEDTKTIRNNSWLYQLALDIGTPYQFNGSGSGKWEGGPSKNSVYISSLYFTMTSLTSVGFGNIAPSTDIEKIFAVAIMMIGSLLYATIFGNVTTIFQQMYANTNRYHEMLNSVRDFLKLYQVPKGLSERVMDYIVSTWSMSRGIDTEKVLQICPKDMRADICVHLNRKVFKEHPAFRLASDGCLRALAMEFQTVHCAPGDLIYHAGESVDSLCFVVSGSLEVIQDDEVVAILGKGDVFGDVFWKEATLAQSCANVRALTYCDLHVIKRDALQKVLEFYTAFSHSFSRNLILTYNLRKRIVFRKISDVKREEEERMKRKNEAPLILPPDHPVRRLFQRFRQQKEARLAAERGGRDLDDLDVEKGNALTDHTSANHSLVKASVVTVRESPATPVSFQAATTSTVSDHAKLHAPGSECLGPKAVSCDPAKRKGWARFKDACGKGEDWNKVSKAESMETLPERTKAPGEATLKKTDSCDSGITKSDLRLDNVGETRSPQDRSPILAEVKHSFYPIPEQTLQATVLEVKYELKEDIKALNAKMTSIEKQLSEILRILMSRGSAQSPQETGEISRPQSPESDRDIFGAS
Excerpt: (§1) The cDNA encoding wild-type (WT) mouse EAG1 channels in pGH19 vector was kindly provided by G. Robertson (University of Wisconsin-Madison, Madison, WI). The mutant ΔPAS EAG1 channel in pGH19 with the deletion of the PAS domain residues 2 to 130 was generated by Bio Basic Inc and verified by DNA sequencing (Genewiz). Mutant EAG1 channels with single amino acid substitutions were generated by Genewiz and verified by DNA sequencing. cRNA was transcribed using the T7 mMessage mMachine kit (Thermo Fisher Scientific). Defolliculated Xenopus laevis oocytes were purchased from Ecocyte Bioscience or Xenopus1 and injected with the cRNA using a Nanoinject II oocyte injector (Drummond).
(§2) For EAG1 current recordings, oocytes were placed into a handmade chamber containing a bath solution for the current recording. The currents were recorded using a TEVC technique with OC-725C amplifier (Warner Instruments) and pClamp11 software (Molecular Devices). The signals were digitized using Digidata 1550 (Molecular Devices). Patch pipettes were pulled from borosilicate glass and had resistances of 0.7 to 1.5 MΩ. The recording (bath) solution contained 96 mM NaCl, 4 mM KCl, 0.1 mM CaCl2, 1.8 mM MgCl2, and 5 mM HEPES, pH 7.5. The pipette solution contained 3 M KCl. […]

[2] = target: T2, F87G mutant EAG1 channels (Mus musculus, UniProt Q60603, F87G); test: TEVC recording, imipramine inhibition, F87G mutant; format: cell-based; conditions: F87G mutant EAG1 channel, +50 mV
T2 construct: expressed in transfected cells; host or cells: Xenopus laevis oocytes injected with cRNA
T2 sequence (Q60603 1-989 F87G): T1 sequence (Q60603 1-989 D39G) with G39D, F87G
Excerpt: as §1, §2

## CN(C)CCCN1c2ccccc2CCc2ccccc21 [imipramine]
[1]
  IC50: 79.6 ± 5.4 µM
[2]
  IC50: 42.8 ± 0.6 µM
